Where two headings read alike, the source gives them in different places.

One series relates to HIV. Briefly: microbe, parasite or virus in culture. The series is classed as cell-based.
A short description of another series: in vitro. Particulars: human.
Series [1] is described as follows: Repeated-dose toxicity study in mice. The conditions noted are these: 25 and 50 mg/kg, daily i.p. for 28 days.
The subject of a further series is SF162. Briefly: HIV-1 clinical strain PBMC assay (p24 ELISA), SF162. Particulars: Human immunodeficiency virus 1, PBMC, read-out: IC50 against SF162. Type of series: cell-based.
Series [2] can be described thus: Cytotoxicity against PBMC. The series is classed as cell-based. The conditions noted are these: human.
In a further series the test system is N119. Briefly: HIV-1 resistant strain PBMC assay (p24 ELISA), N119 (nevaripine resistant). The series is classed as cell-based. The conditions noted are these: Human immunodeficiency virus 1, PBMC, read-out: IC50 against N119.
The next series deals with 1617-1. Briefly: HIV-1 resistant strain PBMC assay (p24 ELISA), 1617-1 (AZT resistant). The series is classed as cell-based. The conditions noted are these: Human immunodeficiency virus 1, PBMC, read-out: IC50 against 1617-1.
A further series relates to Lav.04. Briefly: HIV-1 clinical strain PBMC assay (p24 ELISA), Lav.04. The series is classed as cell-based. Particulars: Human immunodeficiency virus 1, PBMC, read-out: IC50 against Lav.04.
The subject of another series is 89.6. Briefly: HIV-1 clinical strain PBMC assay (p24 ELISA), 89.6. Type of series: cell-based. Particulars: Human immunodeficiency virus 1, PBMC, read-out: IC50 against 89.6.
For a further series, the system named is Bal. Briefly: HIV-1 clinical strain PBMC assay (p24 ELISA), Bal. Particulars: Human immunodeficiency virus 1, BAL, read-out: IC50 against Bal. The series is classed as cell-based.
In the next series the test system is H5N1 virus. Briefly: microbe, parasite or virus in culture. Type of series: cell-based, H5N1 influenza virus. Particulars: for EC50: H5N1, A549, read-out: EC50 against H5N1 virus; for inhibition at 0.1 µg/mL: H5N1, A549, 100 ng/mL; for inhibition at 0.5 µg/mL: H5N1, A549, 500 ng/mL.
Another series deals with EBOV (Ebola virus). Briefly: microbe, parasite or virus in culture. The series is classed as cell-based. Particulars: Zaire ebolavirus; for EC50: A549, read-out: EC50 against EBOV; for inhibition at 0.1 µg/mL: 100 ng/mL; for inhibition at 0.5 µg/mL: 500 ng/mL.
For series [3], the system named is VSV (vesicular stomatitis virus). Briefly: microbe, parasite or virus in culture. Type of series: cell-based. The conditions noted are these: for EC50: A549, read-out: EC50 against VSV; for inhibition at 0.1 µg/mL: A549, 100 ng/mL; for inhibition at 0.5 µg/mL: A549, 500 ng/mL.
Series [4] has as its system A549 cells. Briefly: cells. Particulars: Homo sapiens, A549, read-out: % Inhibition against A549 cells.
Another series has as its system SARS-CoV-2. Briefly: microbe, parasite or virus in culture. Type of series: cell-based. The conditions noted are these: Severe acute respiratory syndrome coronavirus 2, HepG2, read-out: EC50 against SARS-CoV-2.
The subject of series [5] is broad HIV clinical strains. The conditions noted are these: background; read-out: EC50 against broad HIV clinical strains; cited from earlier work.
Series [6] relates to A549 cells.
The mark [7] stands for this setting: Human immunodeficiency virus 1, A549.
Setting [8] is: CC50 against the host cell line A549.
Where [9] appears, read: Influenza A virus, read-out: % Inhibition against H5N1 virus.
[10] abbreviates: A549, read-out: % Inhibition against EBOV.
The mark [11] stands for this setting: read-out: % Inhibition against VSV.

For `COc1cc2c(OC3OC[C@@H](OC(C)=O)[C@H](OC(C)=O)[C@H]3OC(C)=O)c3c(c(-c4ccc5c(c4)OCO5)c2cc1OC)C(=O)OC3` (stereo partly drawn) [Compound 25a, Peracetylated 7β-D-xylosyloxydiphyllin], in the series on HIV, the “anti-HIV activity in terms of SI values” is “much more improved anti-HIV activity”. In addition, in the series on HIV (setting [7]), it took 7 nM to reach a half-maximal effect (EC50). Moreover, in “in vitro” (CC50 (nM)), the CC50 was 3080 nM. Further, in [1], the “excised organs at the end of the experiment” value is “appeared as normal”; the “toxic symptoms (weight loss, skin damage, food and water intake impairment and postual abnormality) and mortality” value is “no toxic symptoms”.

Take `C#Cc1c2c(c(-c3ccc4c(c3)OCO4)c3cc(OC)c(OC)cc13)C(=O)OC2` [Compound 21]: the EC50 with HIV (setting [7]) came to 17.8 nM. In addition, the CC50 in “in vitro” (CC50 (nM)) was 207 nM; in series [2] it was 25600 nM. In addition, the IC50 with SF162 was 23.9 nM; in the series on N119, 42.1 nM; with 1617-1, 39.3 nM; in the series with Lav.04, 30.1 nM; in the series on 89.6, 28.7 nM; with Bal, 26.5 nM.

Consider `COc1cc2c(OC3O[C@H](C)[C@@H](O)[C@H](OC(=O)CC#N)[C@H]3O)c3c(c(-c4ccc5c(c4)OCO5)c2cc1OC)C(=O)OC3` (stereo partly drawn) [Compound 31j, 3″-O-cyanoacetyl-7-O-β-D-patentiflorin A], for which the EC50 came out at 0.91 nM in the series with HIV (setting [7]); 0.84 nM in the series with H5N1 virus (Influenza A virus); 0.84 nM in the series with EBOV (Ebola virus); 0.91 nM in [3]; 10.3 nM in the series with SARS-CoV-2. Besides, the CC50 in “in vitro” (CC50 (nM)) and in the series “in vitro” (setting [8]) was 6.68 nM in each case. Also, the “% Inhibition against H5N1 virus” value in the series with H5N1 virus (50 ng/mL) worked out at 98.2%. Moreover, the inhibition at 0.0125 µg/mL in the series on H5N1 virus (Influenza A virus, H5N1, A549, 12.5 ng/mL, read-out: % Inhibition against H5N1 virus) was determined as 97.5%; in the series with EBOV (Ebola virus) (A549, 12.5 ng/mL, read-out: % Inhibition against EBOV) it was 93.9%; in series [3] (A549, 12.5 ng/mL, read-out: % Inhibition against VSV), 98.4%; in the series with A549 cells [4], 77%. Further, the inhibition at 0.05 µg/mL turned out to be 87.6% with H5N1 virus (Influenza A virus, H5N1, A549, 50 ng/mL, read-out: % Inhibition against H5N1 virus); 96.6% with EBOV (Ebola virus) (A549, 50 ng/mL, read-out: % Inhibition against EBOV); 99.9% in series [3] (A549, 50 ng/mL, read-out: % Inhibition against VSV); 93.8% in the series with A549 cells [4]. For the same compound, the inhibition at 0.25 µg/mL in the series on H5N1 virus (Influenza A virus, H5N1, A549, 250 ng/mL, read-out: % Inhibition against H5N1 virus) was determined as 97.9%.

Consider `COc1cc2c(OC3O[C@@H]4COC(C)(C)O[C@@H]4[C@H](O)[C@H]3O)c3c(c(-c4ccc5c(c4)OCO5)c2cc1OC)C(=O)OC3` (stereo partly drawn) [Compound 32c, 4″,6″-Acetonide-4-O-β-D-galactopyranosyldiphyllin], for which the values for the CC50 in the series “in vitro” (CC50 (nM)) and in the series “in vitro” (setting [8]) were 52.7 nM and 1040 nM, respectively. In addition, the inhibition at 0.1 µg/mL is 65.1% with H5N1 virus (setting [9]), 85.5% in the series with EBOV (Ebola virus) (setting [10]), 48.9% in series [3] (setting [11]) and 2.9% with A549 cells [4]. Further, the inhibition at 0.5 µg/mL in the series with H5N1 virus (setting [9]) amounted to 88.1%; with EBOV (Ebola virus) (setting [10]), 88.2%; in series [3] (setting [11]), 88.1%; in the series on A549 cells [4], 39.7%. Moreover, the EC50 with H5N1 virus (Influenza A virus) worked out at 5.2 nM; in the series on EBOV (Ebola virus) it was 20.3 nM; in [3] it was 124 nM; in the series on SARS-CoV-2, 50.8 nM.

For the compound `CCOC(=O)COc1c2c(c(-c3ccc4c(c3)OCO4)c3cc(OC)c(OC)cc13)C(=O)OC2` [Compound 12b], in the series on HIV (setting [7]), the EC50 was determined as 207 nM. Besides, the CC50 in the series “in vitro” (CC50 (nM)) is more than 26800 nM; in series [2] it was more than 100000 nM. Further, the IC50 came out at 340 nM in the series on SF162; 638 nM in the series on N119; 537 nM in the series on 1617-1; 312 nM in the series with Lav.04; 376 nM with 89.6; 458 nM in the series with Bal.

On to `COc1cc2c(OC3O[C@H](CO)[C@H](O)[C@@H]4OC(C)(C)O[C@@H]34)c3c(c(-c4ccc5c(c4)OCO5)c2cc1OC)C(=O)OC3` (stereo partly drawn) [Compound 32d, 2″,3″-Acetonide-4-O-β-D-galactopyranosyldiphyllin], for which the CC50 in the series “in vitro” (CC50 (nM)) came out at 52.7 nM; in “in vitro” (setting [8]) it was 1350 nM. The inhibition at 0.1 µg/mL in the series with H5N1 virus (setting [9]) was 19.3%; in the series with EBOV (Ebola virus) (setting [10]) it was 65.5%; in series [3] (setting [11]), 100%; with A549 cells [4], -2%. Besides, the inhibition at 0.5 µg/mL stood at 83.5% in the series with H5N1 virus (setting [9]), 82.7% with EBOV (Ebola virus) (setting [10]), 71.7% in series [3] (setting [11]) and 24.3% in the series on A549 cells [4]. Moreover, the EC50 with H5N1 virus (Influenza A virus) was determined as 200 nM; with EBOV (Ebola virus), 396 nM; in [3] it was 286 nM; with SARS-CoV-2, 80.4 nM.

Take `Cc1cn([C@H]2C[C@H](N=[N+]=[N-])[C@@H](CO)O2)c(=O)[nH]c1=O` [AZT, zidovudine, reference compound]: the EC50 with HIV (setting [7]) is 2.6 nM; in the series on H5N1 virus (Influenza A virus), 3.48 nM; in series [5], 77 to 95 nM; with EBOV (Ebola virus), 3.8 nM; in [3], 7.06 nM. The “% Inhibition against H5N1 virus” value in the series with H5N1 virus (20 ng/mL) worked out at 92.7%. In addition, the inhibition at 0.02 µg/mL came out at 96.5% in the series with H5N1 virus (Influenza A virus, H5N1, A549, 20 ng/mL, read-out: % Inhibition against H5N1 virus); 93.6% in the series with EBOV (Ebola virus) (A549, 20 ng/mL, read-out: % Inhibition against EBOV); 99.4% in [3] (A549, 20 ng/mL, read-out: % Inhibition against VSV); 1.1% in the series with A549 cells [4].

Turning to `COc1cc2c(B3OC(C)(C)C(C)(C)O3)c3c(c(-c4ccc5c(c4)OCO5)c2cc1OC)C(=O)OC3` [Compound 19a], in the series with HIV, the “anti-HIV activity in terms of SI values” is “much more improved anti-HIV activity”. In addition, in the series with HIV (setting [7]), it took 77.2 nM to reach a half-maximal effect (EC50). The CC50 is 10500 nM in the series “in vitro” (CC50 (nM)) and more than 100000 nM in [2]. Further, the IC50 is 154 nM in the series with SF162; 185 nM in the series on N119; 152 nM with 1617-1; 138 nM with Lav.04; 143 nM in the series with 89.6; 188 nM in the series on Bal.

Take “2″-Acetyl-7-O-β-D-patentiflorin A [Compound 27bc]”: the EC50 in the series with HIV (read-out: EC50) was found to be 0.93 nM. Also, the CC50 in the series on A549 cells [6] turned out to be 1370 nM.

Regarding `COc1cc2c(OCC#N)c3c(c(-c4ccc5c(c4)OCO5)c2cc1OC)C(=O)OC3` [Compound 17a], in the series on HIV, the “anti-HIV activity in terms of SI values” is “much more improved anti-HIV activity”. For the same compound, in the series with HIV (setting [7]), the EC50 was determined as 72 nM. The CC50 is 45200 nM in the series “in vitro” (CC50 (nM)) and more than 100000 nM in series [2]. The IC50 in the series on SF162 was 122 nM; in the series on N119 it was 203 nM; with 1617-1, 174 nM; with Lav.04, 151 nM; with 89.6 it was 134 nM; with Bal it was 168 nM. Also, the “excised organs at the end of the experiment” value in series [1] is listed as “appeared as normal”. In [1], the “toxic symptoms (weight loss, skin damage, food and water intake impairment and postual abnormality) and mortality” value is “no toxic symptoms”.
